Test results published in PubChem BioAssay (NCI).
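A five-concentration, 48-hour dose response in 96-well plates underlies each endpoint, interpolated linearly between surrounding concentrations. At the GI50, growth is halved. TGI: total growth inhibition.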

Assays:
Assay in all cases: NCI anticancer screen, dose series, 48 h
PC-3 prostate = test system: PC-3 prostate
NCI-H460 lung = test system: NCI-H460 lung
OVCAR-3 ovarian = test system: OVCAR-3 ovarian
SF-295 CNS = test system: SF-295 CNS
IGROV1 ovarian = test system: IGROV1 ovarian
UACC-257 melanoma = test system: UACC-257 melanoma
MDA-MB-435 = test system: MDA-MB-435
HL-60(TB) leukemia = test system: HL-60(TB) leukemia
T-47D breast = test system: T-47D breast
MOLT-4 leukemia = test system: MOLT-4 leukemia
NCI/ADR-RES ovarian = test system: NCI/ADR-RES ovarian
SK-MEL-28 melanoma = test system: SK-MEL-28 melanoma
NCI-H23 lung = test system: NCI-H23 lung
HCT-15 colon = test system: HCT-15 colon
LOX IMVI melanoma = test system: LOX IMVI melanoma
UACC-62 melanoma = test system: UACC-62 melanoma
RXF 393 renal = test system: RXF 393 renal
U251 CNS = test system: U251 CNS
SK-MEL-2 melanoma = test system: SK-MEL-2 melanoma
CCRF-CEM leukemia = test system: CCRF-CEM leukemia
MCF7 breast = test system: MCF7 breast
HS 578T breast = test system: HS 578T breast
ACHN renal = test system: ACHN renal
SF-539 CNS = test system: SF-539 CNS
M14 melanoma = test system: M14 melanoma
OVCAR-8 ovarian = test system: OVCAR-8 ovarian
SK-MEL-5 melanoma = test system: SK-MEL-5 melanoma
HT29 colon = test system: HT29 colon
UO-31 renal = test system: UO-31 renal
A549 NSCLC = test system: A549 NSCLC
TK-10 renal = test system: TK-10 renal
OVCAR-4 ovarian = test system: OVCAR-4 ovarian
NCI-H226 lung = test system: NCI-H226 lung
DU-145 prostate = test system: DU-145 prostate
EKVX NSCLC = test system: EKVX NSCLC
SNB-19 CNS = test system: SNB-19 CNS
BT-549 breast = test system: BT-549 breast
SF-268 CNS = test system: SF-268 CNS
786-0 renal = test system: 786-0 renal
HOP-62 NSCLC = test system: HOP-62 NSCLC
RPMI-8226 leukemia = test system: RPMI-8226 leukemia
COLO 205 colon = test system: COLO 205 colon
HCC-2998 colon = test system: HCC-2998 colon
NCI-H522 lung = test system: NCI-H522 lung
SNB-75 CNS = test system: SNB-75 CNS
HOP-92 NSCLC = test system: HOP-92 NSCLC
HCT-116 colon = test system: HCT-116 colon
SW-620 colon = test system: SW-620 colon
SK-OV-3 ovarian = test system: SK-OV-3 ovarian
OVCAR-5 ovarian = test system: OVCAR-5 ovarian
K-562 leukemia = test system: K-562 leukemia
A498 renal = test system: A498 renal
SN12C renal = test system: SN12C renal
CAKI-1 renal = test system: CAKI-1 renal
KM12 colon = test system: KM12 colon
MDA-MB-231 breast = test system: MDA-MB-231 breast
SR leukemia = test system: SR leukemia
MDA-MB-468 breast = test system: MDA-MB-468 breast
MALME-3M melanoma = test system: MALME-3M melanoma

COc1cnc2c(c1)C(=O)c1c-2n(CCCNCCO)c(=O)c2cc(OC)c(OC)cc12
GI50 (PC-3 prostate): 2770 nM
TGI (PC-3 prostate): 22.2 µM
GI50 (NCI-H460 lung): 423 nM
TGI (NCI-H460 lung): 8.75 µM
GI50 (OVCAR-3 ovarian): 4.52 µM
TGI (OVCAR-3 ovarian): 16.9 µM
GI50 (SF-295 CNS): 418 nM
TGI (SF-295 CNS): 12.3 µM
GI50 (IGROV1 ovarian): 12.1 µM
TGI (IGROV1 ovarian): 28 µM
GI50 (UACC-257 melanoma): 13.6 µM
TGI (UACC-257 melanoma): > 100 µM
GI50 (MDA-MB-435): 6.88 µM
TGI (MDA-MB-435): 20.7 µM
GI50 (HL-60(TB) leukemia): 733 nM
TGI (HL-60(TB) leukemia): 13.5 µM
GI50 (T-47D breast): 746 nM
TGI (T-47D breast): 12.3 µM
GI50 (MOLT-4 leukemia): 311 nM
TGI (MOLT-4 leukemia): 19.1 µM
GI50 (NCI/ADR-RES ovarian): 16.4 µM
TGI (NCI/ADR-RES ovarian): > 100 µM
GI50 (SK-MEL-28 melanoma): 13.2 µM
TGI (SK-MEL-28 melanoma): 26.2 µM
GI50 (NCI-H23 lung): 395 nM
TGI (NCI-H23 lung): 2340 nM
GI50 (HCT-15 colon): 2740 nM
TGI (HCT-15 colon): 14.6 µM
GI50 (LOX IMVI melanoma): 475 nM
TGI (LOX IMVI melanoma): 1900 nM
GI50 (UACC-62 melanoma): 1170 nM
TGI (UACC-62 melanoma): 10.4 µM
GI50 (RXF 393 renal): 1520 nM
TGI (RXF 393 renal): 5.81 µM
GI50 (U251 CNS): 495 nM
TGI (U251 CNS): 10.8 µM
GI50 (SK-MEL-2 melanoma): 17.1 µM
TGI (SK-MEL-2 melanoma): 37.9 µM
GI50 (CCRF-CEM leukemia): 268 nM
TGI (CCRF-CEM leukemia): 18.8 µM
GI50 (MCF7 breast): 174 nM
TGI (MCF7 breast): 4.05 µM
GI50 (HS 578T breast): 12.1 µM
TGI (HS 578T breast): 43.1 µM
GI50 (ACHN renal): 2100 nM
TGI (ACHN renal): 13.2 µM
GI50 (SF-539 CNS): 492 nM
TGI (SF-539 CNS): 2400 nM
GI50 (M14 melanoma): 3.77 µM
TGI (M14 melanoma): 15.8 µM
GI50 (OVCAR-8 ovarian): 3000 nM
TGI (OVCAR-8 ovarian): 16 µM
GI50 (SK-MEL-5 melanoma): 720 nM
TGI (SK-MEL-5 melanoma): 3.16 µM
GI50 (HT29 colon): 1460 nM
TGI (HT29 colon): 10.9 µM
GI50 (UO-31 renal): 5.96 µM
TGI (UO-31 renal): 19.5 µM
GI50 (A549 NSCLC): 4.88 µM
TGI (A549 NSCLC): 20.7 µM
GI50 (TK-10 renal): 15.5 µM
TGI (TK-10 renal): 30.1 µM
GI50 (OVCAR-4 ovarian): 8.24 µM
TGI (OVCAR-4 ovarian): 27.6 µM
GI50 (NCI-H226 lung): 1350 nM
TGI (NCI-H226 lung): 9.83 µM
GI50 (DU-145 prostate): 726 nM
TGI (DU-145 prostate): 12.1 µM
GI50 (EKVX NSCLC): 6.9 µM
TGI (EKVX NSCLC): 20.4 µM
GI50 (SNB-19 CNS): 1470 nM
TGI (SNB-19 CNS): 15.3 µM
GI50 (BT-549 breast): 9.48 µM
TGI (BT-549 breast): 22.9 µM
GI50 (SF-268 CNS): 920 nM
TGI (SF-268 CNS): 20.9 µM
GI50 (786-0 renal): 2540 nM
TGI (786-0 renal): 14.9 µM
GI50 (HOP-62 NSCLC): 349 nM
TGI (HOP-62 NSCLC): 3.78 µM
GI50 (RPMI-8226 leukemia): 1730 nM
TGI (RPMI-8226 leukemia): 10.5 µM
GI50 (COLO 205 colon): 3.33 µM
TGI (COLO 205 colon): 20 µM
GI50 (HCC-2998 colon): 2250 nM
TGI (HCC-2998 colon): 10.8 µM
GI50 (NCI-H522 lung): 459 nM
TGI (NCI-H522 lung): 3.33 µM
GI50 (SNB-75 CNS): 352 nM
TGI (SNB-75 CNS): 10.3 µM
GI50 (HOP-92 NSCLC): 5.07 µM
TGI (HOP-92 NSCLC): 20.8 µM
GI50 (HCT-116 colon): 1150 nM
TGI (HCT-116 colon): 2850 nM
GI50 (SW-620 colon): 1370 nM
TGI (SW-620 colon): 18.2 µM
GI50 (SK-OV-3 ovarian): 1620 nM
TGI (SK-OV-3 ovarian): 5.98 µM
GI50 (OVCAR-5 ovarian): 4.91 µM
TGI (OVCAR-5 ovarian): 18.4 µM
GI50 (K-562 leukemia): 708 nM
TGI (K-562 leukemia): 22.9 µM
GI50 (A498 renal): 12.5 µM
TGI (A498 renal): 25.6 µM
GI50 (SN12C renal): 3.28 µM
TGI (SN12C renal): 16 µM
GI50 (CAKI-1 renal): 1850 nM
TGI (CAKI-1 renal): 16.3 µM
GI50 (KM12 colon): 12.4 µM
TGI (KM12 colon): 25.9 µM
GI50 (MDA-MB-231 breast): 6.52 µM
TGI (MDA-MB-231 breast): 20.3 µM
GI50 (SR leukemia): 393 nM
TGI (SR leukemia): 21.5 µM
GI50 (MDA-MB-468 breast): 1080 nM
TGI (MDA-MB-468 breast): 2780 nM
GI50 (MALME-3M melanoma): 7.2 µM
TGI (MALME-3M melanoma): 21.6 µM
